Reference: ChEMBL document CHEMBL1201862, “PubChem BioAssay data set” (2004)
“And” between values parts separate entries of the source, which are not always exact repeats. Equal entries are not always repeated.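 Cultured in 96-well plates, cells were exposed to test compound for 48 hours across five concentrations. GI50 is the concentration that inhibits growth by half.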 The source made the active and inactive calls. No stated cut-off is given here; in the data, active = GI50 up to about 1.1 µM and inactive = higher.

Columns and labels:
Assay in all cases: inhibition of tumour cell growth, NCI panel, 48 h
A549 = system: A549
COLO 205 = system: COLO 205
SNB-75 = system: SNB-75
DMS-273 = system: DMS-273
SW-620 = system: SW-620
SK-MEL-28 = system: SK-MEL-28
NCI-H23 = system: NCI-H23
SR = system: SR
OVCAR-5 = system: OVCAR-5
KM-20L2 = system: KM-20L2
TK-10 = system: TK-10
HCT-116 = system: HCT-116
HOP-92 = system: HOP-92
XF498 = system: XF498
EKVX = system: EKVX
HOP-18 = system: HOP-18
ACHN = system: ACHN
SN12C = system: SN12C
IGROV-1 = system: IGROV-1
SF-539 = system: SF-539
NCI-H460 = system: NCI-H460
K562 = system: K562
A498 = system: A498
CAKI-1 = system: CAKI-1
OVCAR-8 = system: OVCAR-8
U-251 = system: U-251
SK-MEL-5 = system: SK-MEL-5
SF-268 = system: SF-268
KM12 = system: KM12
SNB-19 = system: SNB-19
M19-MEL = system: M19-MEL
Malme-3M = system: Malme-3M
DMS-114 = system: DMS-114
HCT-15 = system: HCT-15
DLD-1 = system: DLD-1
SK-OV-3 = system: SK-OV-3
RXF 393 = system: RXF 393
UO-31 = system: UO-31
786-0 = system: 786-0
HOP-62 = system: HOP-62
UACC-62 = system: UACC-62
OVCAR-3 = system: OVCAR-3
M14 = system: M14
SF-295 = system: SF-295
OVCAR-4 = system: OVCAR-4
LOX IMVI = system: LOX IMVI
HT-29 = system: HT-29
MOLT-4 = system: MOLT-4
CCRF-CEM = system: CCRF-CEM
HL-60 = system: HL-60
HCC 2998 = system: HCC 2998
UACC-257 = system: UACC-257
LXFL 529 = system: LXFL 529
NCI/ADR-RES = system: NCI/ADR-RES
SNB-78 = system: SNB-78
NCI-H226 = system: NCI-H226
NCI-H522 = system: NCI-H522
SK-MEL-2 = system: SK-MEL-2
MCF7 = system: MCF7
RPMI-8226 = system: RPMI-8226
DU-145 = system: DU-145
MDA-MB-435 = system: MDA-MB-435
BT-549 = system: BT-549
MDA-N = system: MDA-N
T47D = system: T47D
PC-3 = system: PC-3
MDA-MB-231 = system: MDA-MB-231
Hs-578T = system: Hs-578T

With `CC1=C2[C@H](c3ccccc3)C3C=CC2(c2ccccc23)N(C(=O)C(c2ccccc2)c2ccccc2)C1=O` (stereo partly specified) the GI50 (A549) was > 100 µM (inactive), the GI50 (COLO 205) was > 100 µM (inactive) and the GI50 (SNB-75) was > 100 µM (inactive). For the same compound, the GI50 (DMS-273) was > 100 µM (inactive), the GI50 (SW-620) was > 100 µM (inactive) and the GI50 (SK-MEL-28) was > 100 µM (inactive). For the same compound, the GI50 (NCI-H23) was > 100 µM (inactive), the GI50 (SR) was > 100 µM (inactive) and the GI50 (OVCAR-5) was > 100 µM (inactive). For the same compound, the GI50 (KM-20L2) was > 100 µM (inactive), the GI50 (TK-10) was > 100 µM (inactive) and the GI50 (HCT-116) was > 100 µM (inactive). The GI50 (HOP-92) was > 100 µM (inactive), the GI50 (XF498) was > 100 µM (inactive) and the GI50 (EKVX) was > 100 µM (inactive). The GI50 (HOP-18) was > 100 µM (inactive), the GI50 (ACHN) was > 100 µM (inactive) and the GI50 (SN12C) was > 100 µM (inactive). For the same compound, the GI50 (IGROV-1) was > 100 µM (inactive), the GI50 (SF-539) was > 100 µM (inactive) and the GI50 (NCI-H460) was > 100 µM (inactive). The GI50 (K562) was > 100 µM (inactive), the GI50 (A498) was > 100 µM (inactive) and the GI50 (CAKI-1) was > 100 µM (inactive). For the same compound, the GI50 (OVCAR-8) was > 100 µM (inactive), the GI50 (U-251) was > 100 µM (inactive) and the GI50 (SK-MEL-5) was > 100 µM (inactive). For the same compound, the GI50 (SF-268) was > 100 µM (inactive), the GI50 (KM12) was > 100 µM (inactive) and the GI50 (SNB-19) was > 100 µM (inactive). The GI50 (M19-MEL) was > 100 µM (inactive), the GI50 (Malme-3M) was > 100 µM (inactive) and the GI50 (DMS-114) was > 100 µM (inactive). For the same compound, the GI50 (HCT-15) was greater than 100 µM, the GI50 (DLD-1) was > 100 µM (inactive) and the GI50 (SK-OV-3) was > 100 µM (inactive). For the same compound, the GI50 (RXF 393) was > 100 µM (inactive), the GI50 (UO-31) was > 100 µM (inactive) and the GI50 (786-0) was > 100 µM (inactive). The GI50 (HOP-62) was > 100 µM (inactive), the GI50 (UACC-62) was > 100 µM (inactive) and the GI50 (OVCAR-3) was > 100 µM (inactive). For the same compound, the GI50 (M14) was > 100 µM (inactive), the GI50 (SF-295) was > 100 µM (inactive) and the GI50 (OVCAR-4) was > 100 µM (inactive). The GI50 (LOX IMVI) was > 100 µM (inactive), the GI50 (HT-29) was > 100 µM (inactive) and the GI50 (MOLT-4) was > 100 µM (inactive). The GI50 (CCRF-CEM) was > 100 µM (inactive), the GI50 (HL-60) was 41.3 µM (inactive) and the GI50 (HCC 2998) was > 100 µM (inactive). The GI50 (UACC-257) was > 100 µM (inactive) and the GI50 (LXFL 529) was > 100 µM (inactive).

With `COc1cc2c(cc1OC)C(C(c1ccccc1)c1ccccc1)N(C)CC2` (stereo unspecified) the GI50 (A549) was > 100 µM (inactive), the GI50 (COLO 205) was 16.1 µM (inactive) and the GI50 (SNB-75) was 49.1 µM (inactive). For the same compound, the GI50 (DMS-273) was 77.3 µM (inactive), the GI50 (SW-620) was > 100 µM (inactive) and the GI50 (SK-MEL-28) was > 79.3 µM (inactive). For the same compound, the GI50 (NCI-H23) was > 100 µM (inactive), the GI50 (OVCAR-5) was > 100 µM (inactive) and the GI50 (KM-20L2) was 32.6 µM (inactive). For the same compound, the GI50 (HCT-116) was > 58.6 µM (inactive), the GI50 (HOP-92) was 29.2 µM (inactive) and the GI50 (XF498) was 53 µM (inactive). For the same compound, the GI50 (EKVX) was > 100 µM (inactive), the GI50 (HOP-18) was > 100 µM (inactive) and the GI50 (SN12C) was > 100 µM (inactive). For the same compound, the GI50 (IGROV-1) was 70.6 µM (inactive), the GI50 (SF-539) was > 100 µM (inactive) and the GI50 (NCI/ADR-RES) was 68.9 µM (inactive). The GI50 (NCI-H460) was > 89.1 µM (inactive), the GI50 (SNB-78) was > 100 µM (inactive) and the GI50 (K562) was 40.8 µM (inactive). For the same compound, the GI50 (A498) was > 100 µM (inactive), the GI50 (CAKI-1) was 0.617 µM (active) and the GI50 (OVCAR-8) was > 100 µM (inactive). The GI50 (U-251) was 61.9 µM (inactive), the GI50 (SK-MEL-5) was 21 µM (inactive) and the GI50 (NCI-H226) was > 92.9 µM (inactive). For the same compound, the GI50 (SF-268) was > 100 µM (inactive), the GI50 (KM12) was > 100 µM (inactive) and the GI50 (SNB-19) was > 100 µM (inactive). The GI50 (M19-MEL) was > 91.6 µM (inactive), the GI50 (Malme-3M) was 23.8 µM (inactive) and the GI50 (DMS-114) was 41.8 µM (inactive). The GI50 (HCT-15) was greater than 100 µM, the GI50 (DLD-1) was > 78.9 µM (inactive) and the GI50 (SK-OV-3) was 79.3 µM (inactive). The GI50 (NCI-H522) was 74.1 µM (inactive), the GI50 (RXF 393) was 20 µM (inactive) and the GI50 (UO-31) was > 63.7 µM (inactive). For the same compound, the GI50 (HOP-62) was > 100 µM (inactive), the GI50 (UACC-62) was > 86.7 µM (inactive) and the GI50 (SK-MEL-2) was > 85.9 µM (inactive). For the same compound, the GI50 (OVCAR-3) was > 84.7 µM (inactive), the GI50 (SF-295) was > 75.9 µM (inactive) and the GI50 (MCF7) was 52.4 µM (inactive). For the same compound, the GI50 (OVCAR-4) was > 94 µM (inactive), the GI50 (LOX IMVI) was > 81.1 µM (inactive) and the GI50 (HT-29) was 35.1 µM (inactive). For the same compound, the GI50 (MOLT-4) was 38.3 µM (inactive), the GI50 (RPMI-8226) was 36.6 µM (inactive) and the GI50 (CCRF-CEM) was 64.7 µM (inactive). For the same compound, the GI50 (HL-60) was 40.6 µM (inactive), the GI50 (HCC 2998) was 26.3 µM (inactive) and the GI50 (UACC-257) was 32.9 µM (inactive).

For `COC(C(=O)C(O)C(C)O)C1Cc2cc3cc(OC4CC(OC(C)=O)C(OC5CC(O)C(OC)C(C)O5)C(C)O4)cc(O)c3c(O)c2C(=O)C1OC1CC(OC2CC(OC3CC(C)(O)C(OC(=O)C(C)C)C(C)O3)C(O)C(C)O2)C(O)C(C)O1` (stereo unspecified), the GI50 (A549) was 10.9 nM (active) and 9.48 nM (active), the GI50 (SNB-75) was < 10 nM (active) and 19.1 nM (active) and the GI50 (DMS-273) was < 10 nM (active) and 16.9 nM (active). For the same compound, the GI50 (SW-620) was 15.6 nM (active) and 16.2 nM (active), the GI50 (SK-MEL-28) was < 10 nM (active) and 18.5 nM (active) and the GI50 (NCI-H23) was < 17.8 nM (active) and 15.4 nM (active). The GI50 (DU-145) was 0.101 µM (active), the GI50 (HCT-116) was < 18.4 nM (active) and < 10 nM (active) and the GI50 (XF498) was < 10 nM (active) and 8.95 nM (active). For the same compound, the GI50 (MDA-MB-435) was 0.0855 µM (active), the GI50 (EKVX) was 10.2 nM (active) and < 10 nM (active) and the GI50 (HOP-18) was < 0.01 µM (active). The GI50 (SF-539) was 16.1 nM (active) and < 10 nM (active), the GI50 (BT-549) was 0.0202 µM (active) and the GI50 (NCI/ADR-RES) was > 60.8 µM (inactive) and 51.9 µM (inactive). For the same compound, the GI50 (NCI-H460) was 9.82 nM (active) and < 10 nM (active), the GI50 (SNB-78) was 29.1 nM (active) and 24.1 nM (active) and the GI50 (A498) was 14.5 nM (active) and 8.43 nM (active). For the same compound, the GI50 (SK-MEL-5) was 20.1 nM (active) and < 17.8 nM (active), the GI50 (Malme-3M) was 23.8 nM (active) and < 13.5 nM (active) and the GI50 (MDA-N) was 0.112 µM (active). For the same compound, the GI50 (HCT-15) was 0.8 µM and 0.935 µM, the GI50 (T47D) was 0.124 µM (active) and the GI50 (DLD-1) was 44.3 nM (active) and 50.7 nM (active). For the same compound, the GI50 (SK-OV-3) was 210 nM (active) and 166 nM (active), the GI50 (NCI-H522) was 15.6 nM (active) and < 10 nM (active) and the GI50 (UO-31) was 938 nM (active) and 1.19 µM (inactive). The GI50 (UACC-62) was < 10 nM (active) and 16.2 nM (active), the GI50 (SK-MEL-2) was 8.91 nM (active) and < 10 nM (active) and the GI50 (PC-3) was 0.201 µM (active). The GI50 (MCF7) was < 10 nM (active) and 9.16 nM (active), the GI50 (MDA-MB-231) was 0.0627 µM (active) and the GI50 (Hs-578T) was 0.0366 µM (active). The GI50 (UACC-257) was 13.9 nM (active) and 26.3 nM (active).
